Laboratory results reported in the CheMixHub ionic liquid set.

Assay: xn = mol fraction of the nth substance listed
Settings: for viscosity: 100 kPa; for electrical conductivity: 101 kPa

CCCC[n+]1ccn(C)c1.[Br-] + Cc1ncc(CO)c(CO)c1O.Cl + O
viscosity [mPa·s]
Settings | 293.15 K | 298.15 K | 303.15 K | 308.15 K | 313.15 K
x2 = 0, x1 = 0.0009002 | 1.033 | 0.918 | 0.823 | 0.753 | 0.676
x2 = 0, x1 = 0.001799 | 1.057 | 0.938 | 0.841 | 0.757 | 0.689
x2 = 0, x1 = 0.002696 | 1.068 | 1.001 | 0.904 | 0.796 | 0.748
x2 = 0.0002693, x1 = 0.0008999 | 1.037 | 0.922 | 0.827 | 0.757 | 0.68
x2 = 0.0002812, x1 = 0.001798 | 1.062 | 0.943 | 0.846 | 0.762 | 0.694
x2 = 0.0002821, x1 = 0.002695 | 1.073 | 1.006 | 0.909 | 0.801 | 0.753
x2 = 0.0004585, x1 = 0.0008998 | 1.041 | 0.926 | 0.831 | 0.761 | 0.684
x2 = 0.0005547, x1 = 0.002694 | 1.078 | 1.011 | 0.914 | 0.806 | 0.758
x2 = 0.0005732, x1 = 0.001798 | 1.067 | 0.948 | 0.851 | 0.767 | 0.699
x2 = 0.0008147, x1 = 0.0008995 | 1.047 | 0.932 | 0.837 | 0.768 | 0.691
x2 = 0.0008302, x1 = 0.001797 | 1.072 | 0.953 | 0.856 | 0.772 | 0.704
x2 = 0.0008383, x1 = 0.002693 | 1.083 | 1.016 | 0.919 | 0.811 | 0.763
x2 = 0.001093, x1 = 0.0008992 | 1.052 | 0.937 | 0.842 | 0.774 | 0.696
x2 = 0.001142, x1 = 0.001797 | 1.078 | 0.959 | 0.861 | 0.777 | 0.709
x2 = 0.001151, x1 = 0.002693 | 1.089 | 1.022 | 0.925 | 0.816 | 0.768
x2 = 0.00136, x1 = 0.000899 | 1.058 | 0.943 | 0.848 | 0.78 | 0.703
x2 = 0.001373, x1 = 0.001796 | 1.082 | 0.963 | 0.865 | 0.781 | 0.713
x2 = 0.001399, x1 = 0.002692 | 1.094 | 1.027 | 0.929 | 0.82 | 0.772
x2 = 0.001637, x1 = 0.0008987 | 1.063 | 0.948 | 0.854 | 0.785 | 0.708
x2 = 0.001664, x1 = 0.002691 | 1.098 | 1.032 | 0.933 | 0.825 | 0.777
x2 = 0.001674, x1 = 0.001796 | 1.087 | 0.968 | 0.87 | 0.786 | 0.718

CCCC[n+]1ccn(C)c1C.NCC(=O)[O-] + O
Settings | viscosity [mPa·s]
293.15 K, x1 = 0.3904 | 66
298.15 K, x1 = 0.0999 | 13.7
298.15 K, x1 = 0.1982 | 22.2
298.15 K, x1 = 0.3003 | 34.6
298.15 K, x1 = 0.6 | 94
298.15 K, x1 = 0.6999 | 119
298.15 K, x1 = 0.798 | 146
303.15 K, x1 = 0.9001 | 125
308.15 K, x1 = 0.0999 | 7.8
308.15 K, x1 = 0.3003 | 20.2
308.15 K, x1 = 0.3904 | 28.4
308.15 K, x1 = 0.6999 | 65
313.15 K, x1 = 0.3904 | 23.4
313.15 K, x1 = 0.9001 | 71
318.15 K, x1 = 0.6999 | 46.4
318.15 K, x1 = 0.798 | 54

CCCCCCCCCCCC[N+](C)(C)Cc1ccccc1.[Cl-] + CC(C)C[C@H](N)C(=O)O + O
electrical conductivity [S/m]
Settings | 293.15 K | 298.15 K | 303.15 K | 308.15 K | 313.15 K
x2 = 0.001798, x1 = 0.0001441 | 0.0541 | 0.0606 | 0.0671 | 0.074 | 0.0811
x2 = 0.001798, x1 = 0.0001691 | 0.061 | 0.068 | 0.0755 | 0.0833 | 0.0918
x2 = 0.001798, x1 = 0.0001949 | 0.0661 | 0.0738 | 0.0821 | 0.0911 | 0.101
x2 = 0.001798, x1 = 0.0002208 | 0.0704 | 0.0788 | 0.0879 | 0.0977 | 0.108
x2 = 0.001798, x1 = 0.0002443 | 0.0741 | 0.0832 | 0.0928 | 0.103 | 0.116
x2 = 0.001798, x1 = 0.0002664 | 0.0776 | 0.0872 | 0.0975 | 0.109 | 0.122
x2 = 0.001798, x1 = 0.0002864 | 0.0807 | 0.0908 | 0.102 | 0.114 | 0.127
x2 = 0.001798, x1 = 0.0003052 | 0.0838 | 0.0941 | 0.106 | 0.118 | 0.132
x2 = 0.001798, x1 = 0.0003239 | 0.0872 | 0.0976 | 0.11 | 0.123 | 0.137
x2 = 0.001799, x1 = 5.649e-05 | 0.0231 | 0.0258 | 0.0287 | 0.0317 | 0.0346
x2 = 0.001799, x1 = 7.89e-05 | 0.0314 | 0.035 | 0.0389 | 0.0428 | 0.0469
x2 = 0.001799, x1 = 9.986e-05 | 0.0387 | 0.0435 | 0.0482 | 0.0532 | 0.0582
x2 = 0.001799, x1 = 0.0001206 | 0.0462 | 0.0518 | 0.0574 | 0.0633 | 0.0693
x2 = 0.008927, x1 = 0.0002331 | 0.0722 | 0.0806 | 0.0896 | 0.0994 | 0.11
x2 = 0.008927, x1 = 0.0002565 | 0.0758 | 0.0847 | 0.0944 | 0.105 | 0.117
x2 = 0.008927, x1 = 0.0002782 | 0.079 | 0.0883 | 0.0986 | 0.11 | 0.122
x2 = 0.008927, x1 = 0.0002981 | 0.0818 | 0.0918 | 0.102 | 0.115 | 0.127
x2 = 0.008927, x1 = 0.0003168 | 0.0845 | 0.0949 | 0.106 | 0.119 | 0.132
x2 = 0.008927, x1 = 0.0003371 | 0.0874 | 0.0983 | 0.11 | 0.123 | 0.137
x2 = 0.008928, x1 = 0.0001252 | 0.0463 | 0.0518 | 0.0574 | 0.0633 | 0.0692
x2 = 0.008928, x1 = 0.0001513 | 0.0552 | 0.0616 | 0.0682 | 0.075 | 0.082
x2 = 0.008928, x1 = 0.000179 | 0.0627 | 0.0698 | 0.0773 | 0.0853 | 0.0937
x2 = 0.008928, x1 = 0.000207 | 0.068 | 0.0757 | 0.084 | 0.093 | 0.103
x2 = 0.008929, x1 = 5.804e-05 | 0.0225 | 0.0252 | 0.028 | 0.031 | 0.0339
x2 = 0.008929, x1 = 7.973e-05 | 0.0302 | 0.0339 | 0.0376 | 0.0414 | 0.0454
x2 = 0.008929, x1 = 0.0001014 | 0.038 | 0.0425 | 0.0472 | 0.0519 | 0.0568
